Measured values from patent US11230538B2, “Herbicides” (SYNGENTA PARTICIPATIONS AG, priority 2016, dated 2022).

Assays:
Type in all cases: in vivo
[1] = test system: Alopecurus myosuroides (ALOMY); experiment: B1 Pre-emergence herbicidal activity; design: key: 5=total damage to plant; 0=no damage to plant; conditions: pre-emergence application, rate 1000 g/ha, evaluated after 13 days
Outline: (§1)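 Damage was rated visually on a 0–5 scale (0 no damage, 5 total damage) 13 days after treatment. Soil-sown seeds had been sprayed one day after sowing with an aqueous acetone/water (50:50) solution containing 0.5% Tween 20, then kept in a glasshouse at 24/16 °C, 14 h light, 65% humidity.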

[2] = test system: Avena fatua (AVEFA); experiment: B1 Pre-emergence herbicidal activity; design: key: 5=total damage to plant; 0=no damage to plant; conditions: pre-emergence application, rate 1000 g/ha, evaluated after 13 days
Outline: as §1

[3] = test system: Triticum aestivium (TRZAW); experiment: B1 Pre-emergence herbicidal activity; design: key: 5=total damage to plant; 0=no damage to plant; conditions: pre-emergence application, rate 1000 g/ha, evaluated after 13 days
Outline: as §1

[4] = test system: Echinochloa crus-galli (ECHCG); experiment: B1 Pre-emergence herbicidal activity; design: key to Pre-emergence herbicidal activity, ECHCG (damage score 0-5): 5=total damage to plant; 0=no damage to plant; conditions: pre-emergence application, rate 1000 g/ha, evaluated after 13 days
Outline: as §1

[5] = test system: Lolium perenne (LOLPE); experiment: B1 Pre-emergence herbicidal activity; design: key to Pre-emergence herbicidal activity, LOLPE (damage score 0-5): 5=total damage to plant; 0=no damage to plant; conditions: pre-emergence application, rate 1000 g/ha, evaluated after 13 days
Outline: as §1

[6] = test system: Setaria fabenr (SETFA); experiment: B1 Pre-emergence herbicidal activity; design: key to Pre-emergence herbicidal activity, SETFA (damage score 0-5): 5=total damage to plant; 0=no damage to plant; conditions: pre-emergence application, rate 1000 g/ha, evaluated after 13 days
Outline: as §1

[7] = test system: Avena fatua (AVEFA); experiment: B2 Post-emergence herbicidal activity; conditions: post-emergence application, rate 1000 g/ha, evaluated after 13 days
Outline: (§2)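 Visual damage score (0 = none, 5 = total) taken 13 days after treatment. Seedlings had been cultivated 8 days in pots of standard soil before being sprayed with an aqueous solution of compound in acetone/water (50:50) containing 0.5% Tween 20.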

[8] = test system: Echinochloa crus-galli (ECHCG); experiment: B2 Post-emergence herbicidal activity; design: key to Post-emergence herbicidal activity, ECHCG (damage score 0-5): 5=total damage to plant; 0=no damage to plant; conditions: post-emergence application, rate 1000 g/ha, evaluated after 13 days
Outline: as §2

[9] = test system: Lolium perenne (LOLPE); experiment: B2 Post-emergence herbicidal activity; conditions: post-emergence application, rate 1000 g/ha, evaluated after 13 days
Outline: as §2

[10] = test system: Alopecurus myosuroides (ALOMY); experiment: B2 Post-emergence herbicidal activity; design: key: 5=total damage to plant; 0=no damage to plant; conditions: post-emergence application, rate 1000 g/ha, evaluated after 13 days
Outline: as §2

[11] = test system: Setaria fabenri (SETFA); experiment: B2 Post-emergence herbicidal activity; design: key: 5=total damage to plant; 0=no damage to plant; conditions: post-emergence application, rate 1000 g/ha, evaluated after 13 days
Outline: as §2

[12] = test system: Triticum aestivium (TRZAW); experiment: B2 Post-emergence herbicidal activity; design: key: 5=total damage to plant; 0=no damage to plant; conditions: post-emergence application, rate 1000 g/ha, evaluated after 13 days
Outline: as §2

SMILES	Pre-emergence herbicidal activity, ALOMY (damage score 0-5) [1]	Pre-emergence herbicidal activity, AVEFA (damage score 0-5) [2]	Pre-emergence herbicidal activity, TRAZW (damage score 0-5) [3]	Pre-emergence herbicidal activity, ECHCG (damage score 0-5) [4]	Pre-emergence herbicidal activity, LOLPE (damage score 0-5) [5]	Pre-emergence herbicidal activity, SETFA (damage score 0-5) [6]	Post-emergence herbicidal activity, AVEFA (damage score 0-5) [7]	Post-emergence herbicidal activity, ECHCG (damage score 0-5) [8]	Post-emergence herbicidal activity, LOLPE (damage score 0-5) [9]	Post-emergence herbicidal activity, ALOMY (damage score 0-5) [10]	Post-emergence herbicidal activity, SETFA (damage score 0-5) [11]	Post-emergence herbicidal activity, TRAZW (damage score 0-5) [12]
CCC(=O)N(CCCN(CC)CC)c1ccc(-c2cncc(F)c2)nc1C(F)(F)F [Compound C95]	0	1	0	3	1	4	2	5	2	1	5	1
CCC(=O)N(COCC(C)(C)C)c1ccc(-c2cncc(F)c2)nc1C(F)(F)F [Compound C99]	0	1	0	2	1	5	2	4	2	0	5	0
O=C(c1ccccc1)N(CC1CC1)c1ccc(-c2cncc(F)c2)nc1C(F)(F)F [Compound C103]	0	0	0	0	0	1	2	1	1	0	2	0
O=C(Nc1ccc(-c2cncnc2)nc1C(F)(F)F)C1CC1 [Compound C109]	0	2	0	4	1	4	3	5	2	0	5	1
O=C1CCC(=O)N1c1ccc(-c2cncnc2)nc1C(F)(F)F [Compound C110]	0	3	0	4	1	4	3	5	2	0	5	1
O=C(Nc1ccc(-c2cncc(F)c2)nc1C(F)(F)F)C1CCCC1 [Compound C111]	1	2	0	4	1	5	4	5	2	1	5	0
O=CNc1ccc(-c2cncc(F)c2)nc1C(F)(F)F [Compound C112]	1	2	0	3	1	4	3	4	3	0	1	1
O=C(O)CCC(=O)Nc1ccc(-c2cncc(F)c2)nc1C(F)(F)F [Compound C113, 4-[[6-(5-fluoro-3-pyridyl)-2-(trifluoromethyl)-3-pyridyl]amino]-4-oxo-butanoic acid]	0	2	0	5	1	5	4	5	3	1	5	3
COCC(=O)Nc1ccc(-c2cncc(F)c2)nc1C#N [Compound C114, N-[2-cyano-6-(5-fluoro-3-pyridyl)-3-pyridyl]-2-methoxy-acetamide]	0	1	0	4	0	5	2	4	1	1	5	1
